This note sets out measurements from ChEMBL document CHEMBL3045808, “Insect antifeedants from Munronia henryi: structure of munroniamide” (2003).

The subject of assay [1] is Pieris brassicae. Description: Antifeedant activity against fasted third-instar larvae of Pieris brassicae infested in compound-treated Brassica oleracea leaves at 1000 ppm after 48 hr by leaf-disc method relative to control. Format: functional.
Assay [2] concerns Pieris brassicae. Description: Insecticidal activity against fasted third-instar larvae of Pieris brassicae infested in compound-treated Brassica oleracea leaves assessed as mortality at 1000 ppm after 6 days relative to control. Format: functional. Conditions: 144 h.

`CCCCCCCCC/C=C\CCC[C@@H](O)[C@@H](O)[C@H](CO[C@@H]1O[C@H](CO)[C@@H](O)[C@H](O)[C@H]1O)NC(=O)[C@H](O)CCCCCCCCCCCCCCCCCCCCCC` came in with an Activity in the assay with Pieris brassicae [1] of 62%. Besides, the mortality at 1000 ppm in the assay with Pieris brassicae [2] worked out at 50%.
For `CCCCCCCCC/C=C/CCC[C@@H](O)[C@@H](O)[C@H](CO)NC(=O)[C@H](O)CCCCCCCCCCCCCCCCCCCCCC`, in that order: 3% and 0%.
Take `CCCCCCCCCCCCC/C=C/[C@@H](O)[C@H](CO)NC(=O)[C@H](O)CCCCCCCCCCCCCCCCCCCCCC`: the Activity with Pieris brassicae [1] stood at 0%. Besides, the mortality at 1000 ppm in the assay with Pieris brassicae [2] stood at 0%.
With `C/C=C(\C)C(=O)O[C@H]1C[C@@H](OC(C)=O)[C@@]2(C(=O)OC)CO[C@H]3[C@@H](O)[C@@](C)([C@]45O[C@@]4(C)[C@@H]4C[C@H]5O[C@@H]5OC=C[C@@]54O)[C@H]4[C@]1(CO[C@]4(O)C(=O)OC)[C@@H]32` [AZADIRACHTIN A], the Activity with Pieris brassicae [1] is recorded as 99.5%. Besides, in the assay on Pieris brassicae [2], the mortality at 1000 ppm is 100%.
The corresponding values for `C=C1[C@@H]2[C@@H](OC(=O)C=C[C@@]2(C)[C@H]2CC(=O)OC2(C)C)[C@H](OC(C)=O)[C@@]2(C)[C@H](C3=CCN(C(=O)CCNN)C3=O)C[C@H]3O[C@]132` [MUNRONIAMIDE] are 27.6% and 10%.

A word on the mortality: it is the share of the test organisms that died.
